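Values below derive from 48-hour exposures of cells grown in 96-well plates, with endpoints linearly interpolated between the two concentrations bracketing the appropriate inhibition level. Here, GI50 denotes the concentration required for 50% inhibition of growth.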 Activity calls are given as the source filed them. Rule as the data show it: active = GI50 up to about 1.1 µM and inactive = higher.
Tests used:
Test in all cases: DTP human tumour cell line panel, 48 h
786-0 = test system: 786-0
A498 = test system: A498
A549 = test system: A549
ACHN = test system: ACHN
BT-549 = test system: BT-549
CAKI-1 = test system: CAKI-1
CCRF-CEM = test system: CCRF-CEM
COLO 205 = test system: COLO 205
DU-145 = test system: DU-145
EKVX = test system: EKVX
HCC 2998 = test system: HCC 2998
HCT-116 = test system: HCT-116
HL-60 = test system: HL-60
HOP-62 = test system: HOP-62
HOP-92 = test system: HOP-92
HT-29 = test system: HT-29
Hs-578T = test system: Hs-578T
IGROV-1 = test system: IGROV-1
K562 = test system: K562
KM12 = test system: KM12
LOX IMVI = test system: LOX IMVI
M14 = test system: M14
MCF7 = test system: MCF7
MDA-MB-231 = test system: MDA-MB-231
MDA-MB-435 = test system: MDA-MB-435
MDA-N = test system: MDA-N
MOLT-4 = test system: MOLT-4
Malme-3M = test system: Malme-3M
NCI-H226 = test system: NCI-H226
NCI-H23 = test system: NCI-H23
NCI-H460 = test system: NCI-H460
NCI-H522 = test system: NCI-H522
NCI/ADR-RES = test system: NCI/ADR-RES
OVCAR-3 = test system: OVCAR-3
OVCAR-4 = test system: OVCAR-4
OVCAR-5 = test system: OVCAR-5
OVCAR-8 = test system: OVCAR-8
PC-3 = test system: PC-3
RPMI-8226 = test system: RPMI-8226
RXF 393 = test system: RXF 393
SF-268 = test system: SF-268
SF-295 = test system: SF-295
SF-539 = test system: SF-539
SK-MEL-28 = test system: SK-MEL-28
SK-MEL-2 = test system: SK-MEL-2
SK-MEL-5 = test system: SK-MEL-5
SN12C = test system: SN12C
SNB-19 = test system: SNB-19
SNB-75 = test system: SNB-75
SR = test system: SR
SW-620 = test system: SW-620
T47D = test system: T47D
TK-10 = test system: TK-10
U-251 = test system: U-251
UACC-257 = test system: UACC-257
UACC-62 = test system: UACC-62
UO-31 = test system: UO-31
HCT-15 = test system: HCT-15
SK-OV-3 = test system: SK-OV-3

CCCCC(=O)Oc1ccc2c(C)cc(=O)oc2c1
GI50 (786-0): > 100 µM (inactive)
GI50 (A498): > 100 µM (inactive)
GI50 (A549): > 100 µM (inactive)
GI50 (ACHN): > 100 µM (inactive)
GI50 (BT-549): > 100 µM (inactive)
GI50 (CAKI-1): > 100 µM (inactive)
GI50 (CCRF-CEM): > 100 µM (inactive)
GI50 (COLO 205): > 100 µM (inactive)
GI50 (DU-145): > 100 µM (inactive)
GI50 (EKVX): > 100 µM (inactive)
GI50 (HCC 2998): 88.9 µM (inactive)
GI50 (HCT-116): > 100 µM (inactive)
GI50 (HL-60): > 100 µM (inactive)
GI50 (HOP-62): > 100 µM (inactive)
GI50 (HOP-92): 26.2 µM (inactive)
GI50 (HT-29): > 100 µM (inactive)
GI50 (Hs-578T): > 100 µM (inactive)
GI50 (IGROV-1): > 100 µM (inactive)
GI50 (K562): > 100 µM (inactive)
GI50 (KM12): > 100 µM (inactive)
GI50 (LOX IMVI): > 100 µM (inactive)
GI50 (M14): > 100 µM (inactive)
GI50 (MCF7): > 100 µM (inactive)
GI50 (MDA-MB-231): > 100 µM (inactive)
GI50 (MDA-MB-435): > 100 µM (inactive)
GI50 (MDA-N): > 100 µM (inactive)
GI50 (MOLT-4): > 100 µM (inactive)
GI50 (Malme-3M): > 100 µM (inactive)
GI50 (NCI-H226): > 100 µM (inactive)
GI50 (NCI-H23): > 100 µM (inactive)
GI50 (NCI-H460): > 100 µM (inactive)
GI50 (NCI-H522): > 100 µM (inactive)
GI50 (NCI/ADR-RES): > 100 µM (inactive)
GI50 (OVCAR-3): > 100 µM (inactive)
GI50 (OVCAR-4): > 100 µM (inactive)
GI50 (OVCAR-5): > 100 µM (inactive)
GI50 (OVCAR-8): > 100 µM (inactive)
GI50 (PC-3): > 100 µM (inactive)
GI50 (RPMI-8226): > 100 µM (inactive)
GI50 (RXF 393): > 100 µM (inactive)
GI50 (SF-268): > 100 µM (inactive)
GI50 (SF-295): > 100 µM (inactive)
GI50 (SF-539): > 100 µM (inactive)
GI50 (SK-MEL-28): > 100 µM (inactive)
GI50 (SK-MEL-2): > 100 µM (inactive)
GI50 (SK-MEL-5): > 100 µM (inactive)
GI50 (SN12C): > 100 µM (inactive)
GI50 (SNB-19): > 100 µM (inactive)
GI50 (SNB-75): > 100 µM (inactive)
GI50 (SR): > 100 µM (inactive)
GI50 (SW-620): > 100 µM (inactive)
GI50 (T47D): > 100 µM (inactive)
GI50 (TK-10): > 100 µM (inactive)
GI50 (U-251): > 100 µM (inactive)
GI50 (UACC-257): > 100 µM (inactive)
GI50 (UACC-62): > 100 µM (inactive)
GI50 (UO-31): > 100 µM (inactive)

Cc1cc2c(cc1C)NC1=C(O)C(c3c[nH]c4ccc(COc5ccccc5)cc34)OC1=N2 (stereo not given)
GI50 (786-0): 30.5 µM (inactive)
GI50 (A498): 32 µM (inactive)
GI50 (A549): > 100 µM (inactive)
GI50 (ACHN): 45.7 µM (inactive)
GI50 (BT-549): > 100 µM (inactive)
GI50 (CAKI-1): > 100 µM (inactive)
GI50 (COLO 205): > 100 µM (inactive)
GI50 (DU-145): > 100 µM (inactive)
GI50 (EKVX): 37.8 µM (inactive)
GI50 (HCC 2998): 17.1 µM (inactive)
GI50 (HCT-116): 96.8 µM (inactive)
GI50 (HCT-15): > 100 µM
GI50 (HL-60): > 100 µM (inactive)
GI50 (HOP-62): 20.4 µM (inactive)
GI50 (HOP-92): 33.3 µM (inactive)
GI50 (HT-29): > 100 µM (inactive)
GI50 (Hs-578T): 36 µM (inactive)
GI50 (IGROV-1): 60.8 µM (inactive)
GI50 (K562): > 100 µM (inactive)
GI50 (KM12): > 100 µM (inactive)
GI50 (LOX IMVI): > 100 µM (inactive)
GI50 (M14): > 100 µM (inactive)
GI50 (MCF7): 72.1 µM (inactive)
GI50 (MDA-MB-231): 22.3 µM (inactive)
GI50 (MDA-MB-435): > 100 µM (inactive)
GI50 (MDA-N): > 100 µM (inactive)
GI50 (MOLT-4): 46.9 µM (inactive)
GI50 (Malme-3M): > 100 µM (inactive)
GI50 (NCI-H226): 58.7 µM (inactive)
GI50 (NCI-H23): > 100 µM (inactive)
GI50 (NCI-H460): > 100 µM (inactive)
GI50 (NCI-H522): > 100 µM (inactive)
GI50 (NCI/ADR-RES): > 100 µM (inactive)
GI50 (OVCAR-3): > 100 µM (inactive)
GI50 (OVCAR-4): > 100 µM (inactive)
GI50 (OVCAR-5): > 100 µM (inactive)
GI50 (OVCAR-8): 43.9 µM (inactive)
GI50 (PC-3): > 100 µM (inactive)
GI50 (RPMI-8226): > 100 µM (inactive)
GI50 (RXF 393): 39.6 µM (inactive)
GI50 (SF-268): 64.9 µM (inactive)
GI50 (SF-295): 33.6 µM (inactive)
GI50 (SF-539): 27.4 µM (inactive)
GI50 (SK-MEL-28): > 100 µM (inactive)
GI50 (SK-MEL-2): 58.2 µM (inactive)
GI50 (SK-MEL-5): > 100 µM (inactive)
GI50 (SK-OV-3): 33.6 µM (inactive)
GI50 (SN12C): > 100 µM (inactive)
GI50 (SNB-19): 42.2 µM (inactive)
GI50 (SNB-75): 14.9 µM (inactive)
GI50 (SR): 65.9 µM (inactive)
GI50 (SW-620): > 100 µM (inactive)
GI50 (T47D): > 100 µM (inactive)
GI50 (TK-10): 53.5 µM (inactive)
GI50 (U-251): 34.4 µM (inactive)
GI50 (UACC-257): 50 µM (inactive)
GI50 (UACC-62): > 100 µM (inactive)
GI50 (UO-31): 79.8 µM (inactive)
